Assay results reported in paper PMC11460631, “Inhibition of transient receptor potential vanilloid 3 channels by antimalarial hydroxychloroquine alleviates TRPV3-dependent dermatitis” (The Journal of Biological Chemistry, 2024).

Target: T1, TRPV3 I637 alanine mutation (Homo sapiens, UniProt Q8NET8, I637A)
T1 construct: YFP or GFP; expressed in transfected cells; host or cells: HEK293T
T1 sequence (Q8NET8 1-790 I637A): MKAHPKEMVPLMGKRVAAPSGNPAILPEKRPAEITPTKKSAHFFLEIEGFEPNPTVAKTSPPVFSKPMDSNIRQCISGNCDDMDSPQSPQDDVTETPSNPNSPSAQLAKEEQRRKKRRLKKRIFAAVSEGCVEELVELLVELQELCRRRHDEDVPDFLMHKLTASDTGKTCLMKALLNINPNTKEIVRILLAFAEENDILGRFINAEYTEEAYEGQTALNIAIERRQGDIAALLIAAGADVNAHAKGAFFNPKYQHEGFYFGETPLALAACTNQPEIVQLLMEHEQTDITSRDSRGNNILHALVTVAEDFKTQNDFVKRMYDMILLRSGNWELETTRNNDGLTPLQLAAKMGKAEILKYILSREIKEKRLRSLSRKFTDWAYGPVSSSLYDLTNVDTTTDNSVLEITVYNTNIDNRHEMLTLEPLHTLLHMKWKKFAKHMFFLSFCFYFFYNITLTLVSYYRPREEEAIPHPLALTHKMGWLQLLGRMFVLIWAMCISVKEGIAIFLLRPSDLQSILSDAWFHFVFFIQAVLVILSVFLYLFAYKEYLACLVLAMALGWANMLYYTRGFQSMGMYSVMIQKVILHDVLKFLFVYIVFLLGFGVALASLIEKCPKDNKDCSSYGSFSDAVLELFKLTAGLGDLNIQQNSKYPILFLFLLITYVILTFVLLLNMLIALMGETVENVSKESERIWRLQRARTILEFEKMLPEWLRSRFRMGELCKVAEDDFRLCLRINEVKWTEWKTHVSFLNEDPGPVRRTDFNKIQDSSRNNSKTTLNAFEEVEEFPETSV
Assay: Whole-cell recording of TRPV3 I637 alanine mutant
Assay type: cell-based
Details: 1 mM 2-APB, ± 80 mV
Description: As we mentioned above, HCQ may act as a pore blocker of TRPV3. To probe the binding configuration of HCQ to TRPV3, we carried out molecular docking using Rosetta suite (https://rosettacommons.org) ([21]) and validated the docking models with point mutations in TRPV3 (Fig. 4A). […] Furthermore, when we introduced L670A to L591A mutant, we also observed a left shift on the concentration–response curve on this double mutant as compared to L591A mutant (Fig. 4H).
Figure 4 Residues of the pore domain are critical for HCQ inhibition on TRPV3.A, left panel, docking model of HCQ to the pore domain of TRPV3 structure (6uw4). Right panels, top view and side view of the HCQ-binding pocket. B-J, representative whole-cell recording of TRPV3 and mutants in response to 1 mM 2-APB, the mixture of 1 mM 2-APB and concentration gradients of HCQ with the holding potential of ± 80 mV. K, concentration–response curves of HCQ in WT TRPV3 and mutants (n = 3–5 cells). L, quantification of the inhibitory ratio of HCQ (100 μM) on WT, L591A, and N671Q. […]
All data from whole-cell recordings were analyzed in Igor Pro (WaveMetrics). IC50 values were determined by fitting the Hill equation to concentration-response relationships. […]

- IC50: 140 ± 20 nM
SMILES: CCN(CCO)CCCC(C)Nc1ccnc2cc(Cl)ccc12 (stereo not shown) [HCQ, hydroxychloroquine]
